Non-standard residues stand in square brackets, D forms with d. No end group written: not given here. pS = N[C@@H](COP(=O)(O)O)C(=O)O
B1: tri-phosphorylated peptide 3Pb of the bovine rhodopsin C-terminus (peptide)
chain: C(fluorescein‑5‑maleimide)DDEASTTVSKTET[pS]QVAPA
modifications: not fully specified (residue 12); also: third phospho-Ser/Thr site not placed
B2: tri-phosphorylated peptide 3Pd of the bovine rhodopsin C-terminus (peptide)
chain: C(fluorescein‑5‑maleimide)DDEASTTVSKTET[pS]QVAPA
modifications: not fully specified (residue 12); also: third phospho-Ser/Thr site not placed
B3: tri-phosphorylated peptide 3Pc of the bovine rhodopsin C-terminus (peptide)
chain: C(fluorescein‑5‑maleimide)DDEASTTVSKTET[pS]QVAPA
modifications: not fully specified (residue 12); also: third phospho-Ser/Thr site not placed
B4: tri-phosphorylated peptide 3Pa of the bovine rhodopsin C-terminus (peptide)
chain: C(fluorescein‑5‑maleimide)DDEASTTVSKTET[pS]QVAPA
modifications: not fully specified (residue 12); also: third phospho-Ser/Thr site not placed
B5: phosphopeptide 6P of the bovine rhodopsin C-terminus (peptide)
chain: C(fluorescein‑5‑maleimide)DDEASTTVSKTET[pS]QVAPA
modifications: not fully specified (residue 12); also: four further phospho-Ser/Thr sites not placed
B6: phosphopeptide 4P of the bovine rhodopsin C-terminus (peptide)
chain: C(fluorescein‑5‑maleimide)DDEASTTVSKTET[pS]QVAPA
modifications: not fully specified (residue 12); also: two further phospho-Ser/Thr sites not placed

What was measured:
[1] = tested on: arrestin-1 mutants I72B and F197NBD with nonphosphorylated light-activated rhodopsin in ROS membranes; assay: Ternary complex formation (site-directed fluorescence and centrifugal pull-down); format: biochemical, bovine; details: 10 µM rhodopsin in ROS, 1 µM arrestin-1 I72B or F197NBD, 100 µM peptide, pH 7
From the text: Recombinant bovine arrestin-1 cloned into the pET15b vector was expressed and purified as described. The basic construct was a modified wild-type sequence that contained no native cysteines (C63A, C128S and C143A) nor tryptophans (W194F). Single cysteine residues were introduced by PCR at sites 72 or 197 as previously described. The I72C mutant was labeled with monobromobimane (Thermo Fisher) and is referred to as I72B. The F197C mutant was labeled with N,N′-Dimethyl-N-(Iodoacetyl)-N′-(7-Nitrobenz-2-Oxa-1,3-Diazol-4-yl)Ethylenediamine (IANBD amide, Thermo Fisher) and is referred to as F197NBD. Labeling was carried out as previously described[43],[61]. Both labeled mutants were assessed to be functionally similar to wild-type arrestin-1 using the Extra Meta II assay, which determines the ability of arrestin-1 to bind and stabilize the active Meta II form of rhodopsin[64].
Under dim-red light, samples were prepared that contained nonphosphorylated rhodopsin (10 µM) in ROS membranes, 1 µM arrestin-1 I72B or F197NBD, ±100 µM peptide in 50 mM HEPES, 130 mM NaCl, pH 7 (150 or 200 µl sample volume). One hundred microliters of the sample was used for fluorescence measurements, and the remainder was used for the centrifugal pull-down assay (50 µl per assay). Steady-state fluorescence measurements were performed using a SPEX Fluorolog (1680) instrument in front-face mode. Bimane fluorescence was recorded using an excitation wavelength of 400 nm and emission 424–600 nm, and NBD fluorescence was recorded using an excitation wavelength of 500 nm and emission 524–660 (2 nm step size, 0.5 s integration per point). Excitation slits were narrowed to 0.1−0.2 nm to minimize light-activation of rhodopsin, and emission slits were set at 4 nm. Pull-down analysis was performed by centrifuging samples at 16,000 × g for 10 min at 20 °C. Selected samples were light activated (>495 nm) for 15 s prior to centrifugation (appr. 60 s delay time). Following centrifugation, the supernatants were removed, and the pellets were solubilized in loading buffer containing 2% SDS and subjected to SDS PAGE. Bands were visualized using Coomassie Brilliant Blue.

[2] = target: T1, arrestin-1 (monomerizing mutant F85A, F197A) (Bos taurus, UniProt P08168, F197A/F85A); assay: Fluorescence anisotropy binding of fluorescein-labelled peptides to arrestin-1; set-up: species or system bovine
T1 construct: made in house; host or cells: E. coli NiCo (DE3) cells (New England Biolabs), pET-15b vector
T1 sequence (P08168 whole entry F85A/F197A): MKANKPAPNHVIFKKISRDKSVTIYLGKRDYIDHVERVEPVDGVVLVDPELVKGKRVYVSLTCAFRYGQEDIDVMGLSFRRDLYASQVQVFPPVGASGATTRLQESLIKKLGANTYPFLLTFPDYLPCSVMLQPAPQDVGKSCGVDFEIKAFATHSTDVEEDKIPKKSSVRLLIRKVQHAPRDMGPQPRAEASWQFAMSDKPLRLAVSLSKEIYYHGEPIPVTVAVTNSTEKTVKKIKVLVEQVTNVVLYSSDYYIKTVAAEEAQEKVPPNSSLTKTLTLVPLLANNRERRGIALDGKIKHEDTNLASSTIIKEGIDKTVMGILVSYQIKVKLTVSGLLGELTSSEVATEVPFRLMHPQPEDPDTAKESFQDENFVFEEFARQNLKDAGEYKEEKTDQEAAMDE
From the text: (§1) Synthesized cDNAs of bovine arrestin-1, human arrestin-2 and human arrestin-3 were ordered from Genewiz, amplified by PCR and cloned (Supplementary Information Table 5) into the pET-15b vector (Novagen), using the Gibson Assembly protocol. The constructs contained an N-terminal hexa histidine tag linked by a linker that contained a Tobacco Etch Virus cleavage site (TEV; […]). PCR was used to introduce the monomerizing arrestin-1 mutations (F85A, F197A)[58]. Note that this mutant was employed for fluorescence anisotropy, trypsin digestion, and NMR experiments. Wild-type arrestin-2 and -3 were used for fluorescence anisotropy and trypsin digestion experiments. […] The arrestin-1 in this construct had the wild-type sequence. Note that this construct differs slightly from that previously published[59],[60] and was optimized for purification. We verified the functionality of this fusion construct using the standard centrifugal pull-down assay using phosphorylated rhodopsin in native ROS membranes.
0.1–0.2 mg of lyophilized peptide was dissolved in 50 µl of 50 mM phosphate-buffered saline (PBS) buffer at pH 7.0, and then two molar equivalents of fluorescein-5-maleimide dye stock dissolved in dimethylsulfoxid was added. The reaction was carried out at RT in the dark. After 1 h the reaction was topped up with 1 ml of ice-cold 100% acetone and stored until the next day at −20 °C. The precipitated peptide was centrifuged (13,000 × g) for 10 min. The labeled and precipitated peptide was sedimented, and the supernatant was removed. The peptide was resuspended again in ice-cold acetone, stored for 1 h at −20 °C and centrifuged (13,000 × g) for 10 min. […] The precipitated peptide was dried at RT in the dark. It was dissolved in 50 µl of 20 mM Bis-Tris propane pH 7.0 and 150 mM NaCl and its concentration was determined by absorbance. A molar extinction coefficient of 70,000/M/cm at pH 7.0 was assumed for calculating the concentration of the labeled peptide stock.
An 11-step serial dilution series of arrestin in 20 mM Bis-Tris propane pH 7.0, 150 mM NaCl, 8 mM 2‑mercaptoethanol, 2% (w/w) BSA, 0.02% (v/v) Tween-20 was prepared and transferred to a black high-bottom 384-well plate (Greiner). As control for free peptide, a position with only buffer was included. The peptide was added at a final concentration of 20 nM to each well. The plate was closed by a clear cover and vortexed for 15 s. Afterwards it was centrifuged (800 × g) for 2 min and stored at RT for 20 min. The reading was performed by default settings of PHERAstar plate-reader (BMG Labtech) and excitation‑/emission-wavelengths of 485 nm (12 nm bandpass)/520 nm (30 nm bandpass) were used. The analysis was performed using Origin2016 (Microcal Inc) software by fitting the data to a one-to-one binding model:2 r=R0+△R*P/Kd+P, where r stands for anisotropy, R0 stands for anisotropy of the ligand, ΔR stands for anisotropy of the complex minus anisotropy of the ligand, P stands for the concentration of protein, and Kd stands for the dissociation constant of the ligand.

[3] = tested on: arrestin-1 (F85A, F197A); assay: Limited trypsin digestion of arrestin-1 in presence of peptide; format: biochemical, bovine; details: arrestin:peptide 1:1.2, 35 °C, SDS PAGE
From the text: as §1
Arrestin (60 µg) was mixed at a 1 to 1.2 molar ratio with peptide and preincubated at RT for 5 min before 1 μl of 0.15 mg/ml trypsin stock was added. The enzymatic digestion was carried out at 35 °C (20 mM Bis-Tris propane pH 7.0, 150 mM NaCl, 10 mM 2‑Mercaptoethanol and 2 mM EDTA). At certain time points (5, 15, 30, 60, 90 min), 5 μl aliquots were quenched with heat incubation in the presence of 20 μl SDS loading buffer (95 °C, 5 min) and then subjected to SDS PAGE. Bands were visualized with InstantBlue (Expedeon).

[4] = tested on: arrestin-2; assay: Fluorescence anisotropy binding of fluorescein-labelled peptides to arrestin-2; set-up: species or system human
From the text: as §1
0.1–0.2 mg of lyophilized peptide was dissolved in 50 µl of 50 mM phosphate-buffered saline (PBS) buffer at pH 7.0, and then two molar equivalents of fluorescein-5-maleimide dye stock dissolved in dimethylsulfoxid was added. The reaction was carried out at RT in the dark. […] It was dissolved in 50 µl of 20 mM Bis-Tris propane pH 7.0 and 150 mM NaCl and its concentration was determined by absorbance. […]

[5] = target: T2, bovine arrestin-1 with the monomerizing mutations F85A, F197A (bovine, UniProt P08168 2-404, F85A | F197A); assay: fluorescence polarisation; fluorescence anisotropy; 20 nM fluorescently labelled peptide, 11-step serial dilution of arrestin; 20 mM Bis-Tris propane pH 7.0, 150 mM NaCl, 8 mM 2-mercaptoethanol, 2% BSA, 0.02% Tween-20; RT; one-to-one binding model; details: both partners purified
T2 construct: arrestin-1, bovine, synthesized cDNA in pET-15b; monomerizing mutations F85A, F197A; Used for fluorescence anisotropy, trypsin digestion and NMR (2H,15N,13C-labelled for NMR); residues of the linker may remain after cleavage (surmised); source: E. coli NiCo (DE3), purified (Ni-NTA, TEV, SQ column); not shown: His6, N-terminal, cleaved
T2 sequence (P08168 2-404 F85A/F197A): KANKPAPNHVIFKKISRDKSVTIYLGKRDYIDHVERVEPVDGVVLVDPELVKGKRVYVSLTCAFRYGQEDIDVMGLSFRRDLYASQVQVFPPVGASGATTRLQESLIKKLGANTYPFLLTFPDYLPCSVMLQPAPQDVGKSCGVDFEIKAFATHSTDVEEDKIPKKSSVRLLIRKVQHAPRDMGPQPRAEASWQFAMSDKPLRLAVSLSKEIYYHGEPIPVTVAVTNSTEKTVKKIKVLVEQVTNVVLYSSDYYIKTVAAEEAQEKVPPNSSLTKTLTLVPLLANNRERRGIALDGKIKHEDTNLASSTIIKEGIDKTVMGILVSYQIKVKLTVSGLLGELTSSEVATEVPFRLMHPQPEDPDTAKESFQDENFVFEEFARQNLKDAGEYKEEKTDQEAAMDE

Molecule	ternary complex formation (arrestin-1, nonphosphorylated rhodopsin, peptide) [1]	binding to arrestin-1 (in words) [2]	Kd [5] [µM]	further results
CDDEASTTVSKTETSQVAPA [3Pi, tri-phosphorylated rhodopsin C-terminus peptide lacking one key site, containing pT335 and pS338]	moderate ternary complex formation	significant loss of affinity	–	–
CDDEASTTVSKTETSQVAPA [3Pj, tri-phosphorylated rhodopsin C-terminus peptide lacking one or both key sites]	very little arrestin binding	significant loss of affinity	–	–
CDDEASTTVSKTETSQVAPA [3Pk, tri-phosphorylated rhodopsin C-terminus peptide lacking one or both key sites]	very little arrestin binding	significant loss of affinity	–	–
CDDEASTTVSKTETSQVAPA [3Pg, tri-phosphorylated rhodopsin C-terminus peptide lacking one key site, containing pT335 and pS338]	moderate ternary complex formation	significant loss of affinity	–	–
CDDEASTTVSKTETSQVAPA [3Pe, tri-phosphorylated rhodopsin C-terminus peptide lacking one or both key sites]	very little arrestin binding	significant loss of affinity	–	–
CDDEASTTVSKTETSQVAPA [3Pf]	less ternary complex formation	significant loss of arrestin-1 affinity	–	limited trypsin digest pattern of arrestin-1 (conformational change, C-tail displacement) [3]: notable exception; binding to arrestin-2 (in words) [4]: bound well
CDDEASTTVSKTETSQVAPA [3Ph, tri-phosphorylated rhodopsin C-terminus peptide lacking one or both key sites]	very little arrestin binding	significant loss of affinity	–	–
B1	–	–	< 250	–
B2	–	–	< 250	–
B3	–	–	< 250	–
B4	–	–	< 250	–
B5	–	–	< 250	–
B6	–	–	< 250	–

Reference: publication PMC6424980, “Distinct G protein-coupled receptor phosphorylation motifs modulate arrestin affinity and activation and global conformation” (Nature Communications, 2019)
